Assays:
CHO-GFP cells = assay: Cell viability assay (1), MTS; assay type: cell-based
Method: FIG. 3 depicts cell viabilities of 1, 2, 3, Chol-PVA-PEG and Chol-PVA-PEG+1 host:guest pendant polymer complexes in CHO-GFP cells using 25 kD bPEI as control.
The cytotoxicity of the amino-CD derivatives in comparison with bPEI (25 kDa) was evaluated using the MTS assay in CHO-GFP cell lines. The relative cell viabilities were measured as a function of amine densities of the polymers. […] After 24 h, culture media were replaced with serum-free culture media containing increasing amine concentrations of amino-CD, polymer and the polymer:CD complexes and the cells were incubated for 24 h. After 24 h, 15 μl of MTS reagent was added to each well and incubated for 2 h. […] All experiments were conducted for three samples and averaged. […] In this study, LD50 was the concentration of a gene carrier at which the relative cell viability decreased to 50%.

pDNA = assay: Gel shift assay; assay type: binding; details: various N:P ratios, compared among 4, 5, 6
Method: The complexation ability of the systems was studied by gel shift assay. Agarose gels (1% w/v) containing ethidium bromide were made in 1× TE buffer. Transfection complexes were loaded onto the gel at various N:P ratios and 200 ng of DNA added to the wells. The gels were run at 50 V for about 1 h and visualized.
Also, in the absence of polymer, higher N:P ratios were used to condense pDNA effectively. […] This improved condensation capability of 6 relative to 4 and 5 can be attributed to the availability of both the nitrogens on the hydrazine moiety for interaction with pDNA.

Row | Structure (SMILES) | LD50 (CHO-GFP cells) [mM] | capacity for condensing pDNA (pDNA)
1 | CNCCN(C)C[C@H]1O[C@@H]2O[C@H]3[C@H](O)[C@@H](O)[C@@H](O[C@H]4[C@H](O)[C@@H](O)[C@@H](O[C@H]5[C@H](O)[C@@H](O)[C@@H](O[C@H]6[C@H](O)[C@@H](O)[C@@H](O[C@H]7[C@H](O)[C@@H](O)[C@@H](O[C@H]8[C@H](O)[C@@H](O)[C@@H](O[C@H]1[C@H](O)[C@H]2O)O[C@@H]8CO)O[C@@H]7CO)O[C@@H]6CO)O[C@@H]5CO)O[C@@H]4CO)O[C@@H]3CO [Compound 2, Mono-6-(N,N′-dimethylethane-1,2-diamine)-6-deoxy-β-cyclodextrin] | > 10 | 
2 | NNC[C@H]1O[C@@H]2O[C@H]3[C@H](O)[C@@H](O)[C@@H](O[C@H]4[C@H](O)[C@@H](O)[C@@H](O[C@H]5[C@H](O)[C@@H](O)[C@@H](O[C@H]6[C@H](O)[C@@H](O)[C@@H](O[C@H]7[C@H](O)[C@@H](O)[C@@H](O[C@H]8[C@H](O)[C@@H](O)[C@@H](O[C@H]1[C@H](O)[C@H]2O)O[C@@H]8CNN)O[C@@H]7CNN)O[C@@H]6CNN)O[C@@H]5CNN)O[C@@H]4CNN)O[C@@H]3CNN [Compound 6, hepta-6-hydrazyl-β-CD] |  | greatest capacity for condensing pDNA

Reference: patent publication US9526802B2, “Nucleic acid complexes” (Purdue Research Foundation, priority 2012, dated 2016)
